Experimental data as given in patent US11384060B2, “Amide compounds and use thereof” (ALPHALA CO., LTD., priority 2017, dated 2022).
Where two headings read alike, the source gives them in different places.

Columns and labels:
glucagon receptor (GCGR) = target: T1, glucagon receptor (GCGR) (Homo sapiens, UniProt P47871); test: I125-glucagon binding assay (competition, GCGR membrane fractions)
T1 construct: expressed in transfected cells; host or cells: CHO-K1 cells overexpressing GCGR (membrane fractions)
Method in brief: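 Membranes from CHO-K1 cells overexpressing GCGR, 7.5 μg/well in 50 mM Tris pH 7.4 with 0.5% BSA, were preincubated 5 min with serially diluted compounds, then given 0.0625 nM final I^125-glucagon for 30 min at 25° C. Bound label was filtered on PEI-coated GF/B and counted; IC50 by non-linear regression.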

[1] = target: T2, glucagon receptor (GCGR) overexpressed CHO-K1 cells or human primary hepatocytes (Homo sapiens, UniProt P47871); test: Glucagon cAMP inhibition assay (Cisbio cAMP Dynamic 2 HTRF); assay type: cell-based
T2 construct: expressed in transfected cells; host or cells: GCGR overexpressed CHO-K1 cells or human primary hepatocytes (endogenous receptor)
Method in brief: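 GCGR-overexpressing CHO-K1 cells or human primary hepatocytes in HBSS with 0.1% BSA and 800 nM IBMX, pre-incubated 30 min with serially diluted compounds (1% DMSO final), then stimulated 30 min at room temperature with glucagon at its EC50. cAMP measured by HTRF after 60 min lysis; IC50 by non-linear regression.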

T1 sequence (P47871 26-477): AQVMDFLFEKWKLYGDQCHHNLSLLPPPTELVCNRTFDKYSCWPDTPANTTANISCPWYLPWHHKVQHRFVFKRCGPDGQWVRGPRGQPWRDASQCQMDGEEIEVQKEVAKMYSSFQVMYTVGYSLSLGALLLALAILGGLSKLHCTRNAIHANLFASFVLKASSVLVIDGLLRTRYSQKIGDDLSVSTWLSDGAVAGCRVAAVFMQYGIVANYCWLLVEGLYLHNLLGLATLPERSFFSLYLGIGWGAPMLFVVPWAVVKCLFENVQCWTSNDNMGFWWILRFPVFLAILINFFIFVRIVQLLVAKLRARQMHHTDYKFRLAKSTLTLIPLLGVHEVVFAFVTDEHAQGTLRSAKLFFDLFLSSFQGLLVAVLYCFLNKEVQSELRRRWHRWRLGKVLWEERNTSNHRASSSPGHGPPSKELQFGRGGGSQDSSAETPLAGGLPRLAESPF
T2 sequence (P47871 26-477): as above

SMILES	IC50 (glucagon receptor (GCGR); uM) [µM]	IC50 cAMP ([1]; uM) [µM]	IC50 cAMP [1] [µM]	IC50 (glucagon receptor (GCGR)) [µM]
CCOC(=O)CCNC(=O)c1ccc(N[C@@H](Cc2cccc3ccccc23)C(=O)Nc2ccc(-c3cc4ccccc4o3)cc2)cc1 [Compound 23-13, Ethyl (S)-3-(4-((1-((4-(benzofuran-2-yl)phenyl)amino)-3-(naphthalen-1-yl)-1-oxopropan-2-yl)amino)benzamido)propanoate]	> 10	>10		
O=C(O)CCNC(=O)c1ccc(N[C@@H](Cc2ccccc2)C(=O)Nc2ccc(-c3ccc(Cl)cc3Cl)cc2)cc1 [Compound 23-14, (S)-3-(4-((1-((2′,4′-dichloro-[1,1′-biphenyl]-4-yl)amino)-1-oxo-3-phenylpropan-2-yl)amino)benzamido)propanoic Acid]	> 10	>10		
CCOC(=O)CCNC(=O)c1ccc(N[C@@H](Cc2ccccc2)C(=O)Nc2ccc(-c3ccc(Cl)cc3Cl)cc2)cc1 [Compound 23-15, Ethyl (S)-3-(4-((1-((2′,4′-dichloro-[1,1′-biphenyl]-4-yl)amino)-1-oxo-3-phenylpropan-2-yl)amino)benzamido)propanoate]	> 10		6.3	
O=C(O)CCNC(=O)c1ccc(N[C@@H](Cc2cccc3ccccc23)C(=O)Nc2ccc(-c3cc4ccccc4o3)cc2)cc1 [Compound 23-16]			1.193	3.01
CCOC(=O)CCNC(=O)c1ccc(N[C@@H](Cc2cccc3ccccc23)C(=O)Nc2ccc(C(C)(C)C)cc2)cc1 [Compound 23-17, Ethyl (S)-3-(4-((1-((4-(tert-butyl)phenyl)amino)-3-(naphthalen-1-yl)-1-oxopropan-2-yl)amino)benzamido)propanoate]	> 10		7.4	
CC(C)(C)c1ccc(NC(=O)[C@H](Cc2cccc3ccccc23)Nc2ccc(C(=O)NCCC(=O)O)cc2)cc1 [Compound 23-18, (S)-3-(4-((1-((4-(tert-butyl)phenyl)amino)-3-(naphthalen-1-yl)-1-oxopropan-2-yl)amino)benzamido)propanoic Acid]			4.7	1.87
CCOC(=O)CCNC(=O)c1ccc(N[C@@H](Cc2ccc3ccccc3c2)C(=O)Nc2ccc(C(C)(C)C)cc2)cc1 [Compound 23-19, Ethyl (S)-3-(4-((1-((4-(tert-butyl)phenyl)amino)-3-(naphthalen-2-yl)-1-oxopropan-2-yl)amino)benzamido)propanoate]	> 10		5.4	
CC(C)(C)c1ccc(NC(=O)[C@H](Cc2ccc3ccccc3c2)Nc2ccc(C(=O)NCCC(=O)O)cc2)cc1 [Compound 23-20, (S)-3-(4-((1-((4-(tert-butyl)phenyl)amino)-3-(naphthalen-2-yl)-1-oxopropan-2-yl)amino)benzamido)propanoic Acid]			4.7	0.724
CCOC(=O)CCNC(=O)c1ccc(N[C@@H](Cc2ccc3ccccc3c2)C(=O)Nc2ccc(-c3cc4ccccc4o3)cc2)cc1 [Compound 23-21, Ethyl (S)-3-(4-((1-((4-(benzofuran-2-yl)phenyl)amino)-3-(naphthalen-2-yl)-1-oxopropan-2-yl)amino)benzamido)propanoate]	> 10	>10		
O=C(O)CCNC(=O)c1ccc(N[C@@H](Cc2ccc3ccccc3c2)C(=O)Nc2ccc(-c3cc4ccccc4o3)cc2)cc1 [Compound 23-22, (S)-3-(4-((1-((4-(benzofuran-2-yl)phenyl)amino)-3-(naphthalen-2-yl)-1-oxopropan-2-yl)amino)benzamido)propanoic Acid]	> 10		32.1	
O=C(O)CCNC(=O)c1ccc(N[C@@H](Cc2ccccc2)C(=O)Nc2ccc(-c3ccccc3C(F)(F)F)cc2)cc1 [Compound 23-23]			5.8	4.15
O=C(NCCS(=O)(=O)O)c1ccc(N[C@@H](Cc2ccccc2)C(=O)Nc2ccc(-c3cc4ccccc4o3)cc2)cc1 [Compound 23-24, (S)-2-(4-((1-((4-(benzofuran-2-yl)phenyl)amino)-1-oxo-3-phenylpropan-2-yl)amino)benzamido)ethane-1-sulfonic Acid]	> 10	>10		
Cc1cc(C)c(-c2ccc(C[C@H](Nc3ccc(C(=O)NCCC(=O)O)cc3)C(=O)Nc3ccc(C(C)(C)C)cc3)cc2)c(C)c1 [Compound 23-25]			3.1	0.458
COC(=O)CCNC(=O)c1ccc(N[C@@H](CC(C)C)C(=O)Nc2ccc(-c3cc4ccccc4[nH]3)cc2)cc1 [Compound 23-28, Methyl (S)-3-(4-((1-((4-(1H-indol-2-yl)phenyl)amino)-4-methyl-1-oxopentan-2-yl)amino)benzamido)propanoate]			0.179	6.94
CC(C)C[C@H](Nc1ccc(C(=O)NCCC(=O)O)cc1)C(=O)Nc1ccc(-c2cc3ccccc3[nH]2)cc1 [Compound 23-29, (S)-3-(4-((1-((4-(1H-indol-2-yl)phenyl)amino)-4-methyl-1-oxopentan-2-yl)amino)benzamido)propanoic Acid]		>10		0.141
CCOC(=O)CCNC(=O)c1ccc(N[C@H](C(=O)Nc2ccc(-c3cc4ccccc4o3)cc2)[C@@H](C)CC)cc1 [Compound 23-30]			0.0252	1.48
CC[C@H](C)[C@H](Nc1ccc(C(=O)NCCC(=O)O)cc1)C(=O)Nc1ccc(-c2cc3ccccc3o2)cc1 [Compound 23-31, 3-(4-(((2S,3S)-1-((4-(benzofuran-2-yl)phenyl)amino)-3-methyl-1-oxopentan-2-yl)amino)benzamido)propanoic Acid]			4.145	0.294
CCOC(=O)CCNC(=O)c1ccc(N[C@H](C(=O)Nc2ccc(-c3cc4ccccc4o3)cc2)C(C)C)cc1 [Compound 23-32, Ethyl (S)-3-(4-((1-((4-(benzofuran-2-yl)phenyl)amino)-3-methyl-1-oxobutan-2-yl)amino)benzamido)propanoate]			0.0928	5.18
CC(C)[C@H](Nc1ccc(C(=O)NCCC(=O)O)cc1)C(=O)Nc1ccc(-c2cc3ccccc3o2)cc1 [Compound 23-33, (S)-3-(4-((1-((4-(benzofuran-2-yl)phenyl)amino)-3-methyl-1-oxobutan-2-yl)amino)benzamido)propanoic Acid]			1.633	1.01
CC(C)[C@H](Nc1ccc(C(=O)NCCS(=O)(=O)O)cc1)C(=O)Nc1ccc(-c2cc3ccccc3o2)cc1 [Compound 23-34, (S)-2-(4-((1-((4-(benzofuran-2-yl)phenyl)amino)-3-methyl-1-oxobutan-2-yl)amino)benzamido)ethane-1-sulfonic Acid]			75.611	2.57
CCCC[C@H](Nc1ccc(C(=O)NCCC(=O)O)cc1)C(=O)Nc1ccc(-c2cc3ccccc3o2)cc1 [Compound 23-35, (S)-3-(4-((1-((4-(benzofuran-2-yl)phenyl)amino)-1-oxohexan-2-yl)amino)benzamido) propanoic Acid]			15.397	0.186

More lines, now with the values ahead:

IC50 (glucagon receptor (GCGR); uM) [µM]	IC50 cAMP ([1]; uM) [µM]	IC50 cAMP [1] [µM]	IC50 (glucagon receptor (GCGR)) [µM]	SMILES
> 10		1.5		CCOC(=O)CCNC(=O)c1ccc(N[C@H](CC(C)C)C(=O)Nc2ccc(-c3cc4ccccc4o3)cc2)cc1 [Compound 24-1]
		0.5986	0.311	CC(C)C[C@@H](Nc1ccc(C(=O)NCCC(=O)O)cc1)C(=O)Nc1ccc(-c2cc3ccccc3o2)cc1 [Compound 24-2, (R)-3-(4-((1-((4-(benzofuran-2-yl)phenyl)amino)-4-methyl-1-oxopentan-2-yl)amino)benzamido)propanoic Acid]
> 10		0.208		CCOC(=O)CCNC(=O)c1ccc(N[C@H](Cc2ccccc2)C(=O)Nc2ccc(C(F)(F)F)cc2)cc1 [Compound 24-3, Ethyl (R)-3-(4-((1-oxo-3-phenyl-1-((4-(trifluoromethyl)phenyl)amino)propan-2-yl)amino)benzamido)propanoate]
> 10		5.8		CCOC(=O)CCNC(=O)c1ccc(N[C@@H](Cc2ccccc2)C(=O)Nc2ccc(C(F)(F)F)cc2)cc1 [Compound 24-5, Ethyl (S)-3-(4-((1-oxo-3-phenyl-1-((4-(trifluoromethyl)phenyl)amino)propan-2-yl)amino)benzamido)propanoate]
	>10		7.4	O=C(O)CCNC(=O)c1ccc(N[C@@H](Cc2ccccc2)C(=O)Nc2ccc(C(F)(F)F)cc2)cc1 [Compound 24-6, (S)-3-(4-((1-oxo-3-phenyl-1-((4-(trifluoromethyl)phenyl)amino)propan-2-yl)amino)benzamido)propanoic Acid]
		0.217	11.4	CCOC(=O)CCNC(=O)c1ccc(N[C@H](C(=O)Nc2ccc3cc(OC)ccc3c2)[C@@H](C)CC)cc1 [Compound 24-7, Ethyl 3-(4-(((2S,3S)-1-((6-methoxynaphthalen-2-yl)amino)-3-methyl-1-oxopentan-2-yl)amino)benzamido)propanoate]
	>10		1.03	CC[C@H](C)[C@H](Nc1ccc(C(=O)NCCC(=O)O)cc1)C(=O)Nc1ccc2cc(OC)ccc2c1 [Compound 24-8, 3-(4-(((2S,3S)-1-((6-methoxynaphthalen-2-yl)amino)-3-methyl-1-oxopentan-2-yl)amino)benzamido)propanoic Acid]
> 10		1.059		CCOC(=O)CCNC(=O)c1ccc(N[C@H](CC(C)C)C(=O)Nc2ccc(C(F)(F)F)cc2)cc1 [Compound 24-9, Ethyl (R)-3-(4-((4-methyl-1-oxo-1-((4-(trifluoromethyl)phenyl)amino)pentan-2-yl)amino)benzamido)propanoate]
